In patent US10568877B2, “Preparation and anti-HSV-1 application of quinolinone derivatives” (OCEAN UNIVERSITY OF CHINA, priority 2015, dated 2020):

system: HSV-1; assay: Antiviral activity against HSV-1 by cytopathic (CPE) assay in Hep-2 cells; type: cell-based, Herpes Simplex Virus 1; settings: Human alphaherpesvirus 1; anti-HSV-1 activity, CPE assay, Hep-2 cells, neutral red OD 540 nm, Reed-Muench
Protocol: The antiviral activities against HSV-1 were evaluated by cytopathic (CPE) assay. Hep-2 monolayer cells were treated with trypsin enzyme and transferred to 96-well plates. HSV-1 viruses were seeded with Hep-2 cells in 96-well plates, with 2% RPMI-1640 medium, and incubated under 37° C., 5% CO2. After more than 90% lesions, the virus-infected cells were repeatedly freezed and thawed for 3 times, centrifuged, and stored in the refrigerator at −80° C. Each tested compound was dissolved in 10 μL DMSO to make a homogeneous solution and the solution was diluted 10 times by one-to-one dilution with 2% RPMI-1640 medium. The solution gradient was added to the infected cells incubated in 96-well plates. Ribavirin was used as positive control. Normal cells alone and infected cells alone were used as control. All samples were incubated under 37° C., 5% CO2. Examine pathological changes once every hour, for 24 h. […] OD value was determined at 540 nm. IC50 values of the tested compounds were calculated by Reed-Muench methods.

COc1ccc([C@]2(O)c3ccccc3NC(=O)[C@H]2O)cc1 [Compound 16] and COc1ccc([C@]2(O)c3c(O)cccc3NC(=O)[C@H]2O)cc1 [Compound 15] fall in the same range of IC50: 50 to 100 µM for the first, 50 to 100 µM for the second.

COc1ccc(-c2c(O)c(=O)[nH]c3ccccc23)cc1 [Compound 29] and O=c1[nH]c2ccccc2c(-c2ccccc2)c1O [Compound 30] fall in the same range of IC50: 25 to 50 µM for the first, 25 to 50 µM for the second.

CO[C@@H]1C(=O)Nc2ccc(/C=C/[C@]3(C)CCC(=O)[C@@H](C)C3)c(O)c2[C@@]1(O)c1ccccc1 [Compound 2a] and CO[C@@H]1C(=O)Nc2ccc(/C=C/[C@@]3(C)CCC(=O)[C@@H](C)C3)c(O)c2[C@@]1(O)c1ccccc1 [Compound 4] fall in the same range of IC50: 0.05 to 2 µM for the first, 0.05 to 2 µM for the second.

COc1ccc([C@@]2(O)c3c(ccc(/C=C/C(C)=O)c3O)NC(=O)[C@@H]2OC)cc1 [Compound 18] and C=C(C)/C=C/c1ccc2c(c1O)[C@](O)(c1ccc(OC)cc1)[C@@H](OC)C(=O)N2 [Compound 19] fall in the same range of IC50: 25 to 50 µM for the first, 25 to 50 µM for the second.

CO[C@@H]1C(=O)Nc2ccc(/C=C/[C@]3(C)CC[C@@H](O)[C@@H](C)C3)c(O)c2[C@@]1(O)c1ccccc1 [Compound 3] and C=C(C)[C@H]1CC[C@](C)(/C=C/c2ccc3c(c2O)[C@@](O)(c2ccccc2)[C@H](OC)C(=O)N3)O1 [Compound 1] fall in the same range of IC50: 0.05 to 2 µM for the first, 0.05 to 2 µM for the second.

COc1ccc([C@@]2(O)c3c(ccc(/C=C/[C@@]4(C)OC(C)(C)[C@H]5C[C@H]54)c3O)NC(=O)[C@@H]2OC)cc1 [Compound 6] and COc1ccc([C@@]2(O)c3c(ccc(/C=C/[C@@]4(C)OC(C)(C)[C@@H]5C[C@@H]54)c3O)NC(=O)[C@@H]2OC)cc1 [Compound 5] fall in the same range of IC50: 2 to 25 µM for the first, 2 to 25 µM for the second.

Compared with COc1ccc([C@@]2(O)c3c(ccc(/C=C/[C@@]4(C)CCC(C)(C)CO4)c3O)NC(=O)[C@@H]2OC)cc1 [Compound 11], COc1ccc([C@@]2(O)c3c(ccc(/C=C/C4(C)CCC(C)(C)C(O)O4)c3O)NC(=O)[C@@H]2OC)cc1 (some centres unmarked) [Compound 10] is lower in IC50: 2 to 25 µM for the first, 0.05 to 2 µM for the second. The second is the more potent here.

First: COc1ccc([C@@]2(O)c3c(ccc(CC=C(C)C)c3O)NC(=O)[C@@H]2OC)cc1 [Compound 17]
Second: COc1ccc([C@@]2(O)c3c(ccc(/C=C/[C@]4(C)CC[C@@H](O)C(C)(C)O4)c3O)NC(=O)[C@@H]2OC)cc1 [Compound 7]
The IC50 of the first is higher: 25 to 50 µM for the first, 2 to 25 µM for the second. The second is the more potent here.

NC(=O)c1ncn([C@@H]2O[C@H](CO)[C@@H](O)[C@H]2O)n1 [Ribavirin, reference compound] gave an IC50 of 50 to 100 µM.

same assay, conditions: TC50 = median toxic concentration for Hep-2 monolayer cells; IC50 against HSV-1

In the case of COc1ccc([C@@]2(O)c3c(ccc(/C=C/[C@]4(C)CCC(C)(C)CO4)c3O)NC(=O)[C@@H]2OC)cc1 [Compound 12], the “TI = TC50/IC50” value is reported as “++ (“++” means TI was between 20 and 100)”.
NC(=O)c1ncn([C@@H]2O[C@H](CO)[C@@H](O)[C@H]2O)n1 [Ribavirin, reference compound] was tested, and the “TI = TC50/IC50” value was “++++ (“++++” means TI > 500)”.

same assay, conditions: anti-HSV-1 activity, CPE assay, Hep-2 cells, neutral red OD 540 nm, Reed-Muench

COc1ccc([C@@]2(O)c3c(ccc(/C=C/[C@]4(C)CCC(C)(C)CO4)c3O)NC(=O)[C@@H]2OC)cc1 [Compound 12] gave an IC50 of 2 to 25 µM.
